The experiment concerns rat cerebellar granule cells. In words: Excitotoxicity in rat cerebellar granule cells induced by NMDA/serine or kainate, measured by MTT test. It is filed as cell-based. The following applies: excitotoxicity induced by 100 μM NMDA and 10 μM serine, or by 50 μM kainate; 30 to 40% toxicity by MTT tests. As for the experimental part: For this example, rat cerebellar granule cells were placed in culture, according to techniques known to those skilled in the art. Excitotoxicity was induced in these cells by two types of treatment: firstly, by the joint administration of 100 μM NMDA (N-Methyl-D-aspartic acid) and 10 μM serine, and secondly by administration of 50 μM kainate. Under the experimental conditions adopted, 30 to 40% toxicity was observed and measured using MTT tests, known to those skilled in the art.
(Tetrazolium dyes change colour on reduction, which living cells bring about.)

As to `CC(/C=C/C(=O)NO)=C\[C@@H](C)C(=O)c1ccc(N(C)C)cc1` [trichostatin A], the Inhibition of excitotoxicity result is listed as “Inhibition of excitotoxicity can be demonstrated”.

Values taken from patent publication US20050009030A1, “Histone deacetylase: novel molecular target of neurotoxicity” (priority 2002, published 2005).
